Active and inactive are the calls of the source. The rule behind the calls is not given here.
Columns and labels:
Bipolaris oryzae = assay: Antifungal activity against Cochliobolus miyabeanus at 100 ng/ml; assay type: functional, organism-based
HeLa = assay: Cytotoxicity against human HeLa cells; assay type: cell-based
HepG2 = assay: Cytotoxicity against human HepG2 cells; assay type: cell-based
Staphylococcus aureus = assay: Antibacterial activity against methicillin-resistant Staphylococcus aureus Isolate 87-7927 at 10 ug; assay type: functional, organism-based

SMILES	Activity (Bipolaris oryzae)	Activity (HeLa)	Activity (HepG2)	Activity (Staphylococcus aureus)
CCCCCCC(C)C/C(C)=C\C(C)/C=C(C)/C=C/C(O)C(C)c1cc(O)c([C@@H]2O[C@H](CO)C[C@H](O)[C@H]2O)c(=O)o1 (some centres not stated)	Active	Non-toxic	Non-toxic	–
CCCCCCC(C)C/C(C)=C\C(C)/C=C(C)/C=C/C(O)C(C)(C)c1cc(O)c([C@@H]2O[C@H](CO)C[C@H](O)[C@H]2O)c(=O)o1 (some centres not stated) [DEOXYNEOFUSAPYRONE]	Active	Non-toxic	Non-toxic	Active
